Data on one compound can be found in patent US20150141460A1, “Anti-inflammatory Compositions” (Cambridge Enterprise Limited, priority 2007, published 2015).

For the test, the system named is SDF-1α induced migration of THP-1 cells. Briefly: ChemoTx transwell migration assay, SDF-1α induced migration of THP-1 cells. Format: cell-based. To be noted: Homo sapiens; THP-1 cell line; maximal dose of chemoattractant; read-out: ED50 SDF-1α induced migration. The procedure:
In principle, this assay consists of two chambers separated by a porous membrane. The chemoattractant is placed in the lower compartment and the cells are placed in the upper compartment. After incubation for a period at 37° C. the cells move towards the chemoattractant, and the number of cells in the lower compartment is proportional to the chemoattractant activity (relative to a series of controls).
Next, the chemoattractant solution to be placed in the lower compartment is prepared. For example, MCP-1 is diluted in GBSS+BSA to give a final concentration of 25 ng/ml. This is divided into two pots, as for the cell suspension. To one pot, the test compound is added to the same final concentration as was added to the cell suspension, while to the other pot an equal volume of GBSS+BSA plus vehicle as appropriate (e.g., not more than 1% DMSO) is added. Alternatively, other chemokines may be used (SDF-1α at 7.5 ng/ml; RANTES at 50 ng/ml; IL-8 at 10 ng/ml using neutrophils as the target cell population). […]
The impact of the test substance is calculated by comparing the chemoattractant-induced migration which occurred in the presence or absence of various concentrations of the test substance. Typically, the inhibition of migration is expressed as a percentage of the total chemoattractant-induced migration which was blocked by the presence of the compound. […]

For `CC(C)(C)C(=O)N[C@H]1CCCNC1=O` [Compound (I′), (S)-3-(2′,2′-dimethylpropanoylamino)-tetrahydropyridin-2-one], the EC50 was 0.05 nM.
